Common to all, as to format: cell-based
For assay [1], the system named is E. coli strain P4. Put plainly: bactericidal activity in whey. Particulars: for concentrations at which bactericidal activity was displayed: in the presence of whey; for Mean log10 colony forming units: whey, 6 hours at 37° C. How it is done: (§1) Milk and blood samples were aseptically collected from 8 clinically healthy primiparous Holstein cows in mid-lactation with milk somatic cell counts of <150,000 cells/ml. All cows were determined to be free of intramammary pathogens by the absence of growth on blood agar plates spread with milk samples aseptically collected from each animal on 3 different days. For the preparation of whey, milk samples were centrifuged at 44,000×g at 4° C. for 30 min, and the fat layer removed with a spatula. The skim milk was transferred into another sterile tube, centrifuged for an additional 30 min, and the translucent supernatant collected. Milk and whey samples were pasteurized by heating at 63° C. for 30 min. For the preparation of serum, blood was collected from the coccygeal vein into vacutainer tubes containing gel and clot activator (BD Biosciences) for serum separation. The tubes were inverted ×5, the blood allowed to clot for 30 min, and the tubes centrifuged at 1500×g for 15 min. The clear serum supernatants were aseptically transferred into sterile tubes and heat-inactivated by incubating at 56° C. for 30 min. An aliquot of each sample was plated on blood agar plates and samples that were free of detectable bacterial growth were stored at −20° C.
(§2) Overnight bacterial cultures of E. coli strain P4 grown in trypticase soy broth were diluted 1:1,000 in brain heart infusion broth and incubated at 37° C. for 2 hours while shaking at 225 rpm. The log-phase bacteria were diluted 1:10 in brain heart infusion broth to obtain a final concentration of […]. 0.01 ml of the bacterial inoculum was added to a 1.5 ml sterile microcentrifuge tube containing 0.04 ml of serum, milk, or whey. A 0.05 ml aliquot of either peptide or CBS alone was added to each tube. The samples were then shaken at 100 rpm for 6 hours at 37° C. The sample mixtures were subsequently serially diluted in sterile phosphate-buffered saline and plated on MacConkey agar plates (BD Biosciences). The plates were incubated overnight at 37° C. and the colonies enumerated.
(§3) However, bBPI90-99,148-161 was able to inhibit >99% of the growth of E. coli in milk. Because milk appeared to have an inhibitory effect on the bactericidal activity of bBPI90-99,148-161, the peptides were subsequently evaluated for their ability to retain activity in whey, which is the casein-depleted, protein-rich liquid fraction of milk (Table 4).

Assay [2] relates to E. coli strain P4. Particulars: for Mean log10 colony forming units: milk, 6 hours at 37° C. How it is done:
as §1, §2
(§4) To determine whether bBPI142-169 and bBPI90-99,148-161 retained their bactericidal activity in physiological fluids, the peptides were incubated with E. coli strain P4 (1×10^5 CFU) in the presence of serum (Table 2) or milk (Table 3).
as §3

Assay [3] deals with E. coli strain P4. Put plainly: bactericidal activity in serum. To be noted: for Mean log10 colony forming units: serum, 6 hours at 37° C. On the procedure:
as §1, §2, §4

For the next assay, the system named is Enterobacter cloacae. In words: microbe, parasite or virus in culture. The text has this: (§5) Bacterial isolates of Escherichia coli, Klebsiella pneumonia, Serratia marcescens, Pseudomonas aeruginosa, Enterobacter cloacae, and Enterobacter aerogenes, which were obtained from clinical cases of bovine mastitis, were used to assess the bactericidal activity of peptides in a broth microdilution assay. Isolates were obtained from repositories at Cornell University (gift of Dr. Y. H. Schukken; Quality Milk Production Services Program, Cornell University, Ithaca N.Y.) and the USDA Beltsville Agricultural Research Center. […] A. J. Bramley, Institute for Animal Health, Compton Laboratory, Newbury, England), which was originally isolated from a clinical case of mastitis ([…]. Dairy Res. 43: 205-211) was also used to assess the bactericidal activity of the peptides in biological fluids. Reference strains of E. coli (ATCC 25922) and Staphylococcus aureus (ATCC 29213) were obtained from a commercial source (American Type Culture Collection (ATCC), Manassas, Va.). To obtain fresh inoculums for evaluation, a sterile loop of each bacterial glycerol stock was streaked on a blood agar plate. After an overnight incubation at 35° C., a single uniform colony was picked and sub-passaged by streaking on a new blood agar plate and incubating the plate overnight at 35° C. To evaluate the antimicrobial activity of the peptides against various clinical mastitis bacterial isolates, the minimum inhibitory concentration (MIC) and the minimum bactericidal concentration (MBC) of these peptides against the isolates were determined using a standardized broth microdilution assay. In addition to the mastitis isolates, E. coli (ATCC 25922) and S. aureus (ATCC 29213) reference strains were evaluated. […] The assays were performed in accordance with Clinical and Laboratory Standards Institute (CLSI) [formerly National Committee for Clinical Laboratory Standards (NCCLS)] guidelines (National Committee for Clinical Laboratory Standards. 1999. Methods for Determining Bacterial Activity of Antimicrobial Agents: Approved Guideline. Wayne, Pa.; National Committee for Clinical Laboratory Standards. 2002. Performance Standards for Antimicrobial Disk and Dilution Susceptibility Tests for Bacteria Isolated from Animals: Approved Standard. 2nd Edition, Wayne, Pa.). […] The bacterial suspension was then diluted 100-fold in cation-adjusted Mueller-Hinton broth to reach a final inoculum concentration of 10^6 CFU/ml. […] A negative control column was included in the plate that included 100 μl of broth alone. The plates were incubated for 18 h at 35° C. with ambient air circulation and without shaking. The wells were subsequently inspected for cloudiness and pellet formation using a magnifying glass plate reader. The lowest concentration at which no pellet or cloudiness was apparent in a given well was identified as the MIC. […] The plates were incubated overnight at 35° C. and colonies subsequently enumerated. The MBC values were determined as the lowest concentration at which ≧99.9% of inoculated bacteria were killed. All assays were performed in triplicate and the MIC and MBC range reported.

In a further assay the test system is Pseudomonas aeruginosa. Put plainly: microbe, parasite or virus in culture.
Source text: as §5

The test system of a further assay is Serratia marcescens. In words: microbe, parasite or virus in culture.
Source text: as §5

Another assay has as its system Staphylococcus aureus. In words: microbe, parasite or virus in culture.
Source text: as §5

The test system of a further assay is Klebsiella pneumoniae. In words: microbe, parasite or virus in culture.
Source text: as §5

Another assay relates to Escherichia coli. In words: microbe, parasite or virus in culture.
Source text: as §5

The source of these data is patent US20090048160A1, “Antimicrobial activity of bovine bactericidal/permeability-increasing protein (BPI)-derived peptides against Gram-negative bacterial mastitis isolates” (priority 2007, published 2009).

Where two headings read alike, the source gives them in different places. Ends that are not written are not given here. A value given as a limit tells only on which side of the number the result lay.

In the case of “KWKARKNFIKGSSLGWLIQLFRKR [bBPI90-99,148-161]”, the “concentrations at which bactericidal activity was displayed” value in the assay on E. coli strain P4 [1] was at least 10 µg/mL. Moreover, the “Mean log10 colony forming units” value is listed as 8.17 log10 colony forming units with E. coli strain P4 [1] (peptide 0.1 μg/ml); 7.97 log10 colony forming units with E. coli strain P4 [1] (peptide 1 μg/ml); 0 log10 colony forming units in the assay on E. coli strain P4 [1] (peptide 10 μg/ml); 0 log10 colony forming units in the assay on E. coli strain P4 [1] (peptide 100 μg/ml); 8.65 log10 colony forming units in the assay with E. coli strain P4 [2] (peptide 20 μg/ml); 7.89 log10 colony forming units in the assay with E. coli strain P4 [2] (peptide 200 μg/ml). The “Mean log10 colony forming units” value with E. coli strain P4 [2] (peptide 2000 μg/ml) is 6.55 log10 colony forming units; with E. coli strain P4 [3] (peptide 0.1 μg/ml) it was 8.25 log10 colony forming units; with E. coli strain P4 [3] (peptide 1 μg/ml), 8.15 log10 colony forming units; with E. coli strain P4 [3] (peptide 10 μg/ml), 0 log10 colony forming units; in the assay on E. coli strain P4 [3] (peptide 100 μg/ml) it was 0 log10 colony forming units. The “inhibition of the growth of E. coli” value in the assay with E. coli strain P4 [2] (strain P4, 2 mg/ml) is given as over 99%. The “concentrations at which bactericidal activity was demonstrated” value with E. coli strain P4 [3] (in the presence of serum) was at least 10 µg/mL. Also, the “MIC and MBC values” with Enterobacter cloacae was at most 64 µg/mL; in the assay on Pseudomonas aeruginosa, at most 128 µg/mL; against Klebsiella pneumoniae it was at most 64 µg/mL; against Escherichia coli, at most 64 µg/mL. The MBC against Serratia marcescens was over 512 µg/mL; in the assay with Staphylococcus aureus it was 64 to 128 µg/mL. The MIC against Serratia marcescens was over 512 µg/mL; with Staphylococcus aureus, 64 µg/mL.

As to “NSQIRPLPDKGLDLSIRDASIKIRGKWKARKNFIK [bBPI65-99]”, in the assay with E. coli strain P4 [1], the “concentrations at which bactericidal activity was displayed” value is “neither bBPI65-99 nor bBPI142-169 demonstrated bactericidal activity at any concentration tested”. Besides, the “Mean log10 colony forming units” value with E. coli strain P4 [1] (peptide 0.1 μg/ml) is listed as 8.47 log10 colony forming units; with E. coli strain P4 [1] (peptide 1 μg/ml), 8.26 log10 colony forming units; in the assay on E. coli strain P4 [1] (peptide 10 μg/ml) it was 8.16 log10 colony forming units; in the assay with E. coli strain P4 [1] (peptide 100 μg/ml), 7.36 log10 colony forming units; with E. coli strain P4 [2] (peptide 20 μg/ml) it was 8.69 log10 colony forming units; in the assay on E. coli strain P4 [2] (peptide 200 μg/ml) it was 8.54 log10 colony forming units. The “Mean log10 colony forming units” value in the assay with E. coli strain P4 [2] (peptide 2000 μg/ml) was 8.06 log10 colony forming units; with E. coli strain P4 [3] (peptide 0.1 μg/ml), 8.27 log10 colony forming units; in the assay with E. coli strain P4 [3] (peptide 1 μg/ml) it was 8.28 log10 colony forming units; in the assay with E. coli strain P4 [3] (peptide 10 μg/ml), 8.23 log10 colony forming units; in the assay on E. coli strain P4 [3] (peptide 100 μg/ml), 8.07 log10 colony forming units. In addition, the MBC against Enterobacter cloacae is over 256 µg/mL; in the assay on Pseudomonas aeruginosa, over 256 µg/mL; in the assay on Serratia marcescens it was over 512 µg/mL; against Staphylococcus aureus, over 256 µg/mL; with Klebsiella pneumoniae it was over 256 µg/mL; with Escherichia coli it was over 256 µg/mL. The MIC is over 256 µg/mL in the assay on Enterobacter cloacae; over 256 µg/mL with Pseudomonas aeruginosa; over 512 µg/mL with Serratia marcescens; over 256 µg/mL against Staphylococcus aureus; over 256 µg/mL with Klebsiella pneumoniae; over 256 µg/mL with Escherichia coli.

Consider “VRIHISGSSLGWLIQLFRKRIESLLQKS [bBPI142-169]”, for which, in the assay with E. coli strain P4 [1], the “concentrations at which bactericidal activity was displayed” value was “neither bBPI65-99 nor bBPI142-169 demonstrated bactericidal activity at any concentration tested”. Also, the “Mean log10 colony forming units” value with E. coli strain P4 [1] (peptide 0.1 μg/ml) was 8.29 log10 colony forming units; in the assay with E. coli strain P4 [1] (peptide 1 μg/ml), 8.44 log10 colony forming units; in the assay on E. coli strain P4 [1] (peptide 10 μg/ml), 8.10 log10 colony forming units; with E. coli strain P4 [1] (peptide 100 μg/ml) it was 7.45 log10 colony forming units; in the assay on E. coli strain P4 [2] (peptide 20 μg/ml) it was 8.67 log10 colony forming units; in the assay on E. coli strain P4 [2] (peptide 200 μg/ml), 8.55 log10 colony forming units. For the same sequence, the “Mean log10 colony forming units” value is 7.99 log10 colony forming units in the assay with E. coli strain P4 [2] (peptide 2000 μg/ml); 8.42 log10 colony forming units in the assay on E. coli strain P4 [3] (peptide 0.1 μg/ml); 8.38 log10 colony forming units in the assay with E. coli strain P4 [3] (peptide 1 μg/ml); 8.29 log10 colony forming units with E. coli strain P4 [3] (peptide 10 μg/ml); 7.96 log10 colony forming units with E. coli strain P4 [3] (peptide 100 μg/ml). Moreover, the MBC in the assay on Enterobacter cloacae is over 256 µg/mL; against Pseudomonas aeruginosa it was over 256 µg/mL; with Serratia marcescens, over 512 µg/mL; against Staphylococcus aureus, 128 to 256 µg/mL. Also, the MIC against Enterobacter cloacae is over 256 µg/mL; in the assay with Pseudomonas aeruginosa, over 256 µg/mL; against Serratia marcescens, over 512 µg/mL; with Staphylococcus aureus it was 128 to 256 µg/mL.
